The values that follow come from patent US8536209B2, “Aminotriazole derivatives as ALX agonists” (Actelion Pharmaceuticals Ltd., priority 2007, dated 2013).

The target in the test is T1, recombinant human ALX receptor (Homo sapiens, UniProt P25090).
T1 construct: expressed in transfected cells; host or cells: HEK293 (HEK293-hALXR-Gα16)
T1 sequence (P25090 1-351): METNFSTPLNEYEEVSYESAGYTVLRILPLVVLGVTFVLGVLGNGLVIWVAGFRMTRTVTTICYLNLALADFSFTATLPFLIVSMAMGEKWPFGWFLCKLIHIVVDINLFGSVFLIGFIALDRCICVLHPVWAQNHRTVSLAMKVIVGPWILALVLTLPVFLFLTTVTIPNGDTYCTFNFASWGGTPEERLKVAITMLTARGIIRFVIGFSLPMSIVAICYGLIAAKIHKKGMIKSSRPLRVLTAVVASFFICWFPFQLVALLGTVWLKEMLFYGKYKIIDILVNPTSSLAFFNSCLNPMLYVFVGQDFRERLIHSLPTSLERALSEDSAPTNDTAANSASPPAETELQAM
As to the kind of experiment: Intracellular calcium measurements (FLIPR), ALX receptor agonistic activity. Conditions: HEK293-hALXR-Gα16 cells, normalized to WKYMVm 10 nM. Type of test: cell-based. The protocol: The ALX receptor agonistic activity of the compounds of formula (I) is determined in accordance with the following experimental method.
Intracellular Calcium Measurements:
Cells expressing recombinant human ALX receptor and the G-protein Gα16 (HEK293-hALXR-Gα16) were grown to 80% confluency in Growing Medium (GM). Cells were detached from culture dishes with a cell dissociation buffer (Invitrogen, 13151-014), and collected by centrifugation at 1,000 rpm at RT for 5 min in Assay Buffer (AB) (equal parts of Hank's BSS (Gibco, 14065-049) and DMEM without Phemol Red (Gibco, 11880-028)). After 60 min incubation at 37° C. under 5% CO2 in AB supplemented with 1 μM Fluo-4 (AM) (TEFLABS.COM, 0152), 0.04% (v/v) Pluronic F-127 (Molecular Probes, P6866), and 20 mM HEPES (Gibco, 15630-056), the cells were washed and resuspended in AB. They were then seeded onto 384-well FLIPR assay plates (Greiner, 781091) at 50′000 cells in 70 μl per well and sedimented by centrifugation at 1′000 rpm for 1 min. Stock solutions of test compounds were made up at a concentration of 10 mM in DMSO, and serially diluted in AB to concentrations required for activation dose response curves. WKYMVm (Phoenix Peptides) was used as a reference agonist. A FLIPR^384 instrument (Molecular Devices) was operated according to the manufacturer's standard instructions, adding 4 μl of test compound dissolved at 10 mM in DMSO and diluted prior to the experiment in assay buffer to obtain the desired final concentration. Changes in fluorescence were monitored before and after the addition of test compounds at lex=488 nm and lem=540 nm. Emission peak values above base level after compounds addition were exported after base line subtraction. Values were normalized to high-level control (WKYMVm compound, 10 nM final concentration) after subtraction of the base line value (AB addition). The program XLlfit 3.0 (IDBS) was used to fit the data to a single site dose response curve of the equation (A+((B−A)/(1+((C/x)^D)))) and to calculate the EC50 values.

On to `CC(=O)c1cccc(Cn2ncc(NC(=O)OCc3ccccc3Cl)n2)c1` [Example 35, [2-(3-Acetyl-benzyl)-2H-[1,2,3]triazol-4-yl]-carbamic acid 2-chloro-benzyl ester], for which the EC50 stood at 8.5 nM.
The figure for `CC(=O)c1ccnc(Cn2ncc(NC(=O)OCc3ccccc3Cl)n2)c1` [Example 41, [2-(4-Acetyl-pyridin-2-ylmethyl)-2H-[1,2,3]triazol-4-yl]-carbamic acid 2-chloro-benzyl ester] is 21 nM.
With `CC(=O)c1cc(Cn2ncc(NC(=O)c3ncoc3-c3ccccc3)n2)cs1` [Example 49, 5-Phenyl-oxazole-4-carboxylic acid [2-(5-acetyl-thiophen-3-ylmethyl)-2H-[1,2,3]triazol-4-yl]-amide], the EC50 was 57 nM.
On to `CC(=O)c1ccc(Cn2ncc(NC(=O)c3nc(C)sc3-c3cccc(C)c3)n2)o1` [Example 50, 2-Methyl-5-m-tolyl-thiazole-4-carboxylic acid [2-(5-acetyl-furan-2-ylmethyl)-2H-[1,2,3]triazol-4-yl]-amide], for which the EC50 was found to be 98 nM.
For `COCCc1cccc(-c2ocnc2C(=O)Nc2cnn(Cc3ccc(C(C)=O)o3)n2)c1` [Example 42, 5-[3-(2-Methoxy-ethyl)-phenyl]-oxazole-4-carboxylic acid [2-(5-acetyl-furan-2-ylmethyl)-2H-[1,2,3]triazol-4-yl]-amide], the half-maximal effective concentration (EC50) turned out to be 2.1 nM.
To `CC(=O)c1ccc(Cn2ncc(NC(=O)c3ncoc3-c3ccccc3)n2)s1` [Example 33, 5-Phenyl-oxazole-4-carboxylic acid [2-(5-acetyl-thiophen-2-ylmethyl)-2H-[1,2,3]triazol-4-yl]-amide] belongs 2.8 nM; to `CC(=O)c1ccc(Cn2ncc(NC(=O)c3ncoc3-c3ccccc3)n2)o1` [Example 1, 5-Phenyl-oxazole-4-carboxylic acid [2-(5-acetyl-furan-2-ylmethyl)-2H-[1,2,3]triazol-4-yl]-amide], 1.8 nM; to `COCCc1nc(C(=O)Nc2cnn(Cc3ccc(C(C)=O)o3)n2)c(-c2ccccc2)o1` [Example 93, 2-(2-Methoxy-ethyl)-5-phenyl-oxazole-4-carboxylic acid [2-(5-acetyl-furan-2-ylmethyl)-2H-[1,2,3]triazol-4-yl]-amide], 5.2 nM.
To `CC(=O)c1ccc(Cn2ncc(NC(=O)c3ncoc3-c3cccc(C(F)(F)F)n3)n2)o1` [Example 105, 5-(6-Trifluoromethyl-pyridin-2-yl)-oxazole-4-carboxylic acid [2-(5-acetyl-furan-2-ylmethyl)-2H-[1,2,3]triazol-4-yl]-amide] belongs 36 nM.
In the case of `CC(=O)c1cnc(Cn2ncc(NC(=O)OCc3ccccc3Cl)n2)s1` [Example 71, [2-(5-Acetyl-thiazol-2-ylmethyl)-2H-[1,2,3]triazol-4-yl]-carbamic acid 2-chloro-benzyl ester], the EC50 worked out at 23 nM.
In the case of `CC(=O)CCCCn1ncc(NC(=O)c2ncoc2-c2ccccc2)n1` [Example 5, 5-Phenyl-oxazole-4-carboxylic acid [2-(5-oxo-hexyl)-2H-[1,2,3]triazol-4-yl]-amide], the EC50 was 1.6 nM.
For the molecule `CC(=O)c1coc(Cn2ncc(NC(=O)c3ncoc3-c3ccccc3)n2)n1` [Example 91, 5-Phenyl-oxazole-4-carboxylic acid [2-(4-acetyl-oxazol-2-ylmethyl)-2H-[1,2,3]triazol-4-yl]-amide], the EC50 was determined as 0.7 nM.
For `CC(F)(F)CCCCn1ncc(NC(=O)c2ncoc2-c2ccccc2)n1` [Example 36, 5-Phenyl-oxazole-4-carboxylic acid [2-(5,5-difluoro-hexyl)-2H-[1,2,3]triazol-4-yl]-amide], the EC50 worked out at 4.9 nM.
As for `COc1cc(-c2ocnc2C(=O)Nc2cnn(Cc3ccc(C(C)=O)o3)n2)ccc1C` [Example 21, 5-(3-Methoxy-4-methyl-phenyl)-oxazole-4-carboxylic acid [2-(5-acetyl-furan-2-ylmethyl)-2H-[1,2,3]triazol-4-yl]-amide], the EC50 came out at 53 nM.
Take `CC(=O)c1ccc(Cn2ncc(NC(=O)c3nc(C4CC4)oc3-c3ccccc3)n2)o1` [Example 30, 2-Cyclopropyl-5-phenyl-oxazole-4-carboxylic acid [2-(5-acetyl-furan-2-ylmethyl)-2H-[1,2,3]triazol-4-yl]-amide]: the EC50 was determined as 0.8 nM.
Consider `CC(=O)c1ccc(Cn2ncc(NC(=O)/C=C/c3cccc(OC(F)(F)F)c3)n2)o1` [Example 8, (E)-N-[2-(5-Acetyl-furan-2-ylmethyl)-2H-[1,2,3]triazol-4-yl]-3-(3-trifluoromethoxy-phenyl)-acrylamide], for which the EC50 is 1.2 nM.
`CC(=O)c1ccc(Cn2ncc(NC(=O)c3nc(C)oc3-c3cccc(C(F)(F)F)c3)n2)o1` [Example 26, 2-Methyl-5-(3-trifluoromethyl-phenyl)-oxazole-4-carboxylic acid [2-(5-acetyl-furan-2-ylmethyl)-2H-[1,2,3]triazol-4-yl]-amide]: the EC50 turned out to be 2 nM.
On to `CS(=O)(=O)c1ccc(Cn2ncc(NC(=O)c3ncoc3-c3ccccc3)n2)o1` [Example 37, 5-Phenyl-oxazole-4-carboxylic acid [2-(5-methanesulfonyl-furan-2-ylmethyl)-2H-[1,2,3]triazol-4-yl]-amide], for which the EC50 worked out at 24 nM.
As for `CC(=O)c1ncc(Cn2ncc(NC(=O)c3nc(C)oc3-c3cccc(F)c3)n2)o1` [Example 99, 5-(3-Fluoro-phenyl)-2-methyl-oxazole-4-carboxylic acid [2-(2-acetyl-oxazol-5-ylmethyl)-2H-[1,2,3]triazol-4-yl]-amide], the EC50 is 8.1 nM.
The figure for `CC(=O)c1csc(Cn2ncc(NC(=O)OCc3ccccc3Cl)n2)n1` [Example 40, [2-(4-Acetyl-thiazol-2-ylmethyl)-2H-[1,2,3]triazol-4-yl]-carbamic acid 2-chloro-benzyl ester] is 1.3 nM; for `CC(=O)c1cccc(Cn2ncc(NC(=O)c3ncoc3-c3ccccc3)n2)n1` [Example 43, 5-Phenyl-oxazole-4-carboxylic acid [2-(6-acetyl-pyridin-2-ylmethyl)-2H-[1,2,3]triazol-4-yl]-amide] it is 203 nM; for `CC(=O)c1ccc(Cn2ncc(NC(=O)c3ncoc3-c3cccc(N(C)C)c3)n2)o1` [Example 38, 5-(3-Dimethylamino-phenyl)-oxazole-4-carboxylic acid [2-(5-acetyl-furan-2-ylmethyl)-2H-[1,2,3]triazol-4-yl]-amide] it is 1.9 nM.
To `CC(=O)c1nc(Cn2ncc(NC(=O)OCc3ccccc3Cl)n2)co1` [Example 104, [2-(2-Acetyl-oxazol-4-ylmethyl)-2H-[1,2,3]triazol-4-yl]-carbamic acid 2-chloro-benzyl ester] belongs 1.4 nM.

As a reminder, the EC50 is the concentration that produces a half-maximal response.
